Where a name gives a salt, the structure may show the parent alone.
Molecular target: T1, AR (Homo sapiens, UniProt P10275)
T1 construct: endogenous in cells; host or cells: VCaP cells
T1 sequence (P10275 1-920): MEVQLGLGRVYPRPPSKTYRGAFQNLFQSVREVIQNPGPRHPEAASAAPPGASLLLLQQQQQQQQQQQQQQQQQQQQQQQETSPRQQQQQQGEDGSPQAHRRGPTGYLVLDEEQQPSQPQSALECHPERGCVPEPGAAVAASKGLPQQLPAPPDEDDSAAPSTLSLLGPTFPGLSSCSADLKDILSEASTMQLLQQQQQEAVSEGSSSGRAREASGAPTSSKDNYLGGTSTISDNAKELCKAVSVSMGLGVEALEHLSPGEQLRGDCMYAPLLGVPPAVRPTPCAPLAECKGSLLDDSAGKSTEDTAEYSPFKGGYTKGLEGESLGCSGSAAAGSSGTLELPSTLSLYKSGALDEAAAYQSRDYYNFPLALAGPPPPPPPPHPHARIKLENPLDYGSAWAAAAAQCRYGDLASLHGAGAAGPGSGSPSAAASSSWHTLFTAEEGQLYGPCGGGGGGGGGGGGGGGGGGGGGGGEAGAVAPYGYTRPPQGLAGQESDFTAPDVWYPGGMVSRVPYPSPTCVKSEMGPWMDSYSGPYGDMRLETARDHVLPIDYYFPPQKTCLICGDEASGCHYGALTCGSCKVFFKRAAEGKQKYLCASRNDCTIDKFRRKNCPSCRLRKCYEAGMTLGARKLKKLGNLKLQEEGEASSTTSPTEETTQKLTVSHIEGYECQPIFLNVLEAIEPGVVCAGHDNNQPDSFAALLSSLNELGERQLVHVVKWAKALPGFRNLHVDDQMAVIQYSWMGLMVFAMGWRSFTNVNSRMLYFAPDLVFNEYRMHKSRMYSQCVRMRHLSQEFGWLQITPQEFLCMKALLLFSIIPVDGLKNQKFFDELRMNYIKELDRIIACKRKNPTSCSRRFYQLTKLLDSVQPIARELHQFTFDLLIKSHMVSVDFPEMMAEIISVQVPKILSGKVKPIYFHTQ
Test: VCAP AR Degradation Assay
Assay type: cell-based
Conditions: for Y (AR degradation efficiency, % of DMSO control): class symbols *; for DC50: class symbols A-C, read-out: DC50
Experimental: VCAP AR Degradation Assay. Test compounds were pre-dispensed into a Corning CellBind 96-well clear bottom plate (Cat #3300) using an acoustic dispenser to make a 10-point concentration series at 1:3 dilution for each compound. The final top concentration of each compound was 5 μM. DMSO at a final concentration of 0.1% was used as a control. VCaP cells cultured in DMEM with 8% fetal bovine serum (FBS) were seeded at 50K cells per well in a 200 μL volume into the compound plate and incubated at 37° C. in a CO2 incubator for 24 h. The medium was carefully removed from the cells and the plate was placed on ice. One hundred μL of ice-cold 1x cell lysis buffer from Cell Signaling Technologies (Cat #9803) was added to each well of the cells and the plate was incubated at 4° C. on a shaker for 1 h. Fifteen μL of cell lysate was used for AR ELISA detection using a PathScan Total Sandwich AR ELISA kit (Cell Signaling Technology, Cat #12580). AR levels in compound-treated wells were normalized to that of DMSO control and expressed as percent of control (PoC) (y). A Four Parameter Logistic Model (Sigmoidal Dose-Response Model) was used to determine the compound's DC50, and EC50, using the following equation:
[formula] • A=YMin (lowest AR level normalized to DMSO control in response to compound treatment, as determined by curve fit) • B=YMax (maximum AR level as determined by curve fit) • C=EC50 • D=Hill Slope • x=compound concentration • EC50=the concentration of compound when y=(YMax−YMin)/2 • DC50=the concentration of the compound when y=50% of DMSO control (50% AR degradation) • y=AR protein level normalized to DMSO control
The lowest measured AR level normalized to DMSO control in response to compound treatment, termed Y value, was used to characterize the compound-mediated AR degradation efficiency.

Row | Structure (SMILES) | Y (AR degradation efficiency, % of DMSO control) | DC50 [nM]
1 | CCc1cc(N2C(=S)N(c3cnc(C#N)c(C(F)(F)F)c3)C(=O)C2(C)C)ccc1OCCN1CCN(CC(=O)Nc2cc(NC3CCC(=O)NC3=O)ccc2Cl)CC1 (single isomer, unassigned) [Example 47] | * (0<Y<=25%) | < 100
2 | N#Cc1ccc(N2C(=O)C3(CCOC3)N(c3ccc(OCCN4CCN(CC(=O)Nc5cc(Cl)cc(NC6CCC(=O)NC6=O)c5)CC4)c(F)c3)C2=S)cc1C(F)(F)F (single isomer, unassigned) [Example 54, N-(3-chloro-5-(2,6-dioxopiperidin-3-ylamino)phenyl)-2-(4-(2-(4-(3-(4-cyano-3-(trifluoromethyl)phenyl)-4-oxo-2-thioxo-7-oxa-1,3-diazaspiro[4.4]nonan-1-yl)-2-fluorophenoxy)ethyl)piperazin-1-yl)acetamide] | * (0<Y<=25%) | < 100
3 | N#Cc1ccc(N2C(=O)C3(CCOC3)N(c3ccc(OCCN4CCN(CC(=O)Nc5cc(Cl)cc(NC6CCC(=O)NC6=O)c5)CC4)c(F)c3)C2=S)cc1C(F)(F)F (single isomer, unassigned) [Example 55, N-(3-chloro-5-(2,6-dioxopiperidin-3-ylamino)phenyl)-2-(4-(2-(4-(3-(4-cyano-3 (trifluoromethyl)phenyl)-4-oxo-2-thioxo-7-oxa-1,3-diazaspiro[4.4]nonan-1-yl)-2-fluorophenoxy)ethyl)piperazin-1-yl)acetamide] | ** (25%<Y<=35%) | 100 to 500
4 | CCc1cc(N2C(=S)N(c3cnc(C#N)c(C(F)(F)F)c3)C(=O)C2(C)C)ccc1OCCN1CCN([C@H](C)C(=O)Nc2cc(Cl)cc(NC3CCC(=O)NC3=O)c2)CC1 (single isomer, unassigned) [Example 113] | * (0<Y<=25%) | < 100
5 | CCc1cc(N2C(=S)N(c3cnc(C#N)c(C(F)(F)F)c3)C(=O)C2(C)C)ccc1OCCN1CCN([C@@H](C)C(=O)Nc2cc(Cl)cc(NC3CCC(=O)NC3=O)c2)CC1 (single isomer, unassigned) [Example 114] | * (0<Y<=25%) | < 100
6 | CCc1cc(N2C(=S)N(c3ccc(C#N)c(C(F)(F)F)c3)C(=O)C2(C)C)ccc1OC[C@H](C)N1C[C@@H](C)N(CC(=O)Nc2cccc(NC3CCC(=O)NC3=O)c2)[C@@H](C)C1 (single isomer, unassigned) [Example 236] | ** (25%<Y<=35%) | 100 to 500
7 | CCc1cc(N2C(=S)N(c3ccc(C#N)c(C(F)(F)F)c3)C(=O)C2(C)C)ccc1OC[C@@H](C)N1C[C@@H](C)N(CC(=O)Nc2cccc(NC3CCC(=O)NC3=O)c2)[C@@H](C)C1 (single isomer, unassigned) [Example 237] | ** (25%<Y<=35%) | 100 to 500
8 | CCc1cc(N2C(=S)N(c3cnc(C#N)c(C(F)(F)F)c3)C(=O)C2(C)C)ccc1O[C@H](C)CN1C[C@@H](C)N(CC(=O)Nc2cccc(NC3CCC(=O)NC3=O)c2)[C@@H](C)C1 (single isomer, unassigned) [Example 239] | * (0<Y<=25%) | < 100
9 | CCc1cc(N2C(=S)N(c3cnc(C#N)c(C(F)(F)F)c3)C(=O)C2(C)C)ccc1O[C@@H](C)CN1C[C@@H](C)N(CC(=O)Nc2cccc(NC3CCC(=O)NC3=O)c2)[C@@H](C)C1 (single isomer, unassigned) [Example 240] | ** (25%<Y<=35%) | 100 to 500
10 | CCc1cc(N2C(=S)N(c3ccc(C#N)c(C(F)(F)F)c3)C(=O)C2(C)C)ccc1O[C@H](C)CN1C[C@@H](C)N(CC(=O)Nc2cccc(NC3CCC(=O)NC3=O)c2)[C@@H](C)C1 (single isomer, unassigned) [Example 241] | * (0<Y<=25%) | 100 to 500
11 | CCc1cc(N2C(=S)N(c3ccc(C#N)c(C(F)(F)F)c3)C(=O)C2(C)C)ccc1O[C@@H](C)CN1C[C@@H](C)N(CC(=O)Nc2cccc(NC3CCC(=O)NC3=O)c2)[C@@H](C)C1 (single isomer, unassigned) [Example 242] | *** (35%<Y<50%) | 500 to 1000
12 | CC1(C)C(=O)N(c2ccc(C#N)c(C(F)(F)F)c2)C(=S)N1c1ccc(OCCN2CCN(CC(=O)Nc3cccc(NC4CCC(=O)NC4=O)c3)CC2)c(F)c1 (stereo not shown) [Example 1, formate] | *** (35%<Y<50%) | < 100
13 | CC1(C)C(=O)N(c2cnc(C#N)c(C(F)(F)F)c2)C(=S)N1c1ccc(OCCN2CCN(CC(=O)Nc3cccc(NC4CCC(=O)NC4=O)c3)CC2)cc1 (stereo not shown) [Example 2, hydrochloride] | ** (25%<Y<=35%) | < 100
14 | CC1(C)C(=O)N(c2ccc(C#N)c(C(F)(F)F)c2)C(=S)N1c1ccc(OCCN2CCN(CC(=O)Nc3cccc(NC4CCC(=O)NC4=O)c3)CC2)c(Cl)c1 (stereo not shown) [Example 3, hydrochloride] | * (0<Y<=25%) | < 100
15 | CC1(C)C(=O)N(c2ccc(C#N)c(C(F)(F)F)c2)C(=S)N1c1ccc(OCCN2CCN(CC(=O)Nc3cc(Cl)cc(NC4CCC(=O)NC4=O)c3)CC2)c(F)c1 (stereo not shown) [Example 4, hydrochloride] | * (0<Y<=25%) | < 100
16 | CC1(C)C(=O)N(c2cnc(C#N)c(C(F)(F)F)c2)C(=S)N1c1ccc(OCCN2CCN(CC(=O)Nc3cccc(NC4CCC(=O)NC4=O)c3)CC2)c(Cl)c1 (stereo not shown) [Example 5, hydrochloride] | * (0<Y<=25%) | < 100
17 | N#Cc1ncc(N2C(=O)C3(CCC3)N(c3ccc(OCCN4CCN(CC(=O)Nc5cccc(NC6CCC(=O)NC6=O)c5)CC4)c(F)c3)C2=S)cc1C(F)(F)F (stereo not shown) [Example 6] | ** (25%<Y<=35%) | < 100
18 | N#Cc1ccc(N2C(=O)C3(CCC3)N(c3ccc(OCCN4CCN(CC(=O)Nc5cccc(NC6CCC(=O)NC6=O)c5)CC4)c(Cl)c3)C2=S)cc1C(F)(F)F (stereo not shown) [Example 7, hydrochloride] | * (0<Y<=25%) | < 100
19 | N#Cc1ccc(N2C(=O)C3(CCC3)N(c3ccc(OCCN4CCN(CC(=O)Nc5cccc(NC6CCC(=O)NC6=O)c5)CC4)c(F)c3)C2=S)cc1C(F)(F)F (stereo not shown) [Example 8, hydrochloride] | ** (25%<Y<=35%) | < 100
20 | CC1(C)C(=O)N(c2ccc(C#N)c(C(F)(F)F)c2)C(=S)N1c1ccc(OCCN2CCN(CC(=O)Nc3cccc(NC4CCC(=O)NC4=O)c3)CC2)c(C2CC2)c1 (stereo not shown) [Example 9, hydrochloride] | * (0<Y<=25%) | < 100
21 | CCc1cc(N2C(=S)N(c3ccc(C#N)c(C(F)(F)F)c3)C(=O)C2(C)C)ccc1OCCN1CCN(CC(=O)Nc2cccc(NC3CCC(=O)NC3=O)c2)CC1 (stereo not shown) [Example 10, hydrochloride] | * (0<Y<=25%) | < 100
22 | CC1(C)C(=O)N(c2ccc(C#N)c(C(F)(F)F)c2)C(=S)N1c1ccc(OCCN2CCN(CC(=O)Nc3cccc(NC4CCC(=O)NC4=O)c3)CC2)c(C(F)(F)F)c1 (stereo not shown) [Example 12, hydrochloride] | *** (35%<Y<50%) | 100 to 500
23 | Cc1cc(OCCN2CCN(CC(=O)Nc3cccc(NC4CCC(=O)NC4=O)c3)CC2)c(F)cc1N1C(=S)N(c2ccc(C#N)c(C(F)(F)F)c2)C(=O)C1(C)C (stereo not shown) [Example 13, hydrochloride] | *** (35%<Y<50%) | < 100
